Read-outs that look alike come from different tables or passages of the source. Blank lines part the entries; values can stand above or below the compound they belong to.
- log D (logarithm of nickel value extraction distribution coefficient) (pH 1.6): 0.14
- log D (logarithm of nickel value extraction distribution coefficient) (pH 2.08): 0.87
Compound: 1-(4-C10-14 -alkylphenyl)-1,2-nonanedione dioximes [Dioximes D]

- log D (logarithm of nickel value extraction distribution coefficient) (pH 1.42): -0.30
- log D (logarithm of nickel value extraction distribution coefficient) (pH 1.66): 0.10
- log D (logarithm of nickel value extraction distribution coefficient) (pH 2): 0.80
- log D (logarithm of nickel value extraction distribution coefficient) (pH 2.55): 1.76
Compound: 1-(4-C10-14 -alkylphenyl)-1,2-propanedione dioximes [Dioximes C1]

- log D (logarithm of nickel value extraction distribution coefficient) (pH 1.36): -0.38
- log D (logarithm of nickel value extraction distribution coefficient) (pH 1.7): 0.12
- log D (logarithm of nickel value extraction distribution coefficient) (pH 2.1): 0.82
- log D (logarithm of nickel value extraction distribution coefficient) (pH 2.66): 1.84
Compound: 2-(4-C10-14 -alkylphenyl)-2-hydroxyiminoethanal oximes [Dioximes B]

- log D (logarithm of nickel value extraction distribution coefficient) (pH 1.58): -0.70
- log D (logarithm of nickel value extraction distribution coefficient) (pH 1.89): -0.22
- log D (logarithm of nickel value extraction distribution coefficient) (pH 2.04): 0.18
- log D (logarithm of nickel value extraction distribution coefficient) (pH 2.7): 1.19
Compound: CCCCCCCC(=NO)C(CCCCCCC)=NO [Dioxime A, 8,9-hexadecanedione dioxime, reference compound]
